The numbers were not newly measured in patent US9775900B2, “Photodynamic diagnosis, formulations usable as photosensitizers for this purpose, method for the production and use thereof” (Sanochemia Pharmazeutika AG, priority 2015, dated 2017), which cites them from elsewhere.

For the data set the following is noted: pure hypericin.

In the case of `Cc1cc(O)c2c(=O)c3c(O)cc(O)c4c5c(O)cc(O)c6c(=O)c7c(O)cc(C)c8c1c2c(c34)c(c78)c65` [hypericin, 1,3,4,6,8,13-hexahydroxy-10,11-dimethylphenanthro (1,10,9,8-opqra) perylene-7,14-dione], the solubility in water entry is “water-insoluble”.
